Here are results for three compounds from patent US7943382B2, “Method for inspecting fat-soluble vitamin and/or fat-soluble food factor by saliva analysis” (Mitsubishi Chemical Medience Corporation, priority 2004, dated 2011).

Data set [1] can be described thus: Transition of the lycopene and β-carotene levels in parotid saliva on ingestion of lycopene + β-carotene MAX1. The data set is classed as in vivo, human. To be noted: lycopene + β-carotene MAX1, two tablets (20 mg lycopene, 60 mg β-carotene) every morning for a week, then two weeks discontinuation; FIGS. 9 and 10. Here is the method:
2 of 3 volunteers were made to ingest orally two commercial supplement lycopene +β-carotene MAX1 (trade name, Minami Healthy Food Co.) containing 10 mg of lycopene and 30 mg of β-carotene per one tablet (20 mg of lycopene and 60 mg of β-carotene per two tablet) at 7:00 every morning continuously for a week, and as a specimen, parotid saliva was collected from PM 4:00 to 5:00, three times, that is, before ingestion and one week after ingestion and two weeks after discontinuation of ingestion. The volunteer had the mouth rinsed with water, and kept quiet on a chair for 5 minutes, while the volunteer accumulated saliva in the oral cavity and discharged to initialize the oral cavity, followed by collecting saliva. […] The ingestion states of the supplement, that is, before ingestion and one week after ingestion, and two weeks after discontinuation of ingestion, are arranged on the horizontal axis as points, and the concentrations of lycopene and β-carotene (hereinafter, the measured concentrations of lycopene and β-carotene will be referred to “lycopene level” and “β-carotene level” respectively) in parotid saliva are arranged on the vertical axis, and transition of the lycopene and β-carotene levels in parotid saliva depending on ingestion of supplements is shown in FIGS. 9 and 10.

For data set [2] the following is noted: cited from earlier work.
A short description of data set [3]: Transition of the tocopherol level in parotid saliva on ingestion of supplement S. The data set is classed as in vivo, human. To be noted: two tablets (32.8 mg α-tocopherol) every morning for a week, then two weeks discontinuation, 3 volunteers, FIG. 8. As to the method: 3 volunteers were made to ingest orally two commercial CoQ10 supplement S containing 32.8 mg of tocopherol per two tablets as α-tocopherol at 7:00 every morning continuously for a week, and as a specimen, parotid saliva was collected from PM 4:00 to 5:00, three times, that is, before ingestion and one week after ingestion and two weeks after discontinuation of ingestion. The volunteer had the mouth rinsed with water, and kept quiet on a chair for 5 minutes, while the volunteer accumulated saliva in the oral cavity and discharged to initialize the oral cavity, followed by collecting saliva. […] The ingestion states of the supplement, that is, before ingestion and one week after ingestion, and two weeks after discontinuation of ingestion are arranged on the horizontal axis as points, and the tocopherol concentrations (hereinafter, the measured concentration of tocopherol will be referred to “tocopherol level”) in parotid saliva are arranged on the vertical axis, and transition of the tocopherol level in parotid saliva depending on states of supplements with tocopherol is shown in FIG. 8.

The nature of data set [4]: Chromatograms of parotid saliva specimens A, B and C (HPLC with ECD detection). In kind it is in vivo, human. To be noted: Supplement N, one tablet every morning and evening for a month (60 mg CoQ10, 20 mg α-tocopherol per day). Here is the method: In pretreatment of the specimens, 20 μl of plasma and 180 μl of ethanol (Wako Pure Chemical Industries, Ltd.: HPLC grade) were added to an autosampler vial (sampler vial PP 250 μl: Shiseido Co., Ltd.) to have a final ethanol concentration of 90% (V/V), which was centrifuged under cooling by 1000 G for 5 minutes to precipitate proteins. In the case of directly collected saliva, 150 μl of ethanol was added to 50 μl of the specimen to have a final ethanol concentration of 75% (V/V), which was centrifuged under cooling by 1000 G for 5 minutes to precipitate proteins. […]
Ubidecarenol, tocopherol, lycopene and β-carotene can be quantitatively analyzed at 600 mV. […] Therefore, CoQ10 is converted into ubidecarenol by reducing the carbonyl group to the OH group using the above-mentioned commercial online reduction column, and then detected in an oxidation mode using the amperometry-type electrochemical detector 3005 (Shiseido Co., Ltd.) or the pulse-type electrochemical detector 3016 (Shiseido Co., Ltd.) under the HPLC condition shown in FIGS. 1 and 2, allowing the bulk detection as shown in FIGS. 3 and 4. […]

`CC1=C(/C=C/C(C)=C/C=C/C(C)=C/C=C/C=C(C)/C=C/C=C(C)/C=C/C2=C(C)CCCC2(C)C)C(C)(C)CCC1` [β-carotene]: the “transition of the level in parotid saliva” value in data set [1] is “obviously increased in the two volunteers who ingested the supplement compared with one volunteer without ingestion, and decreased by discontinuation of ingestion”. Further, in data set [2] (Nonpatent document No. 1), the “detection in the parotid saliva” value was “could not be detected”. Further, the “correlation between the serum level and the whole saliva level” value in data set [2] (Nonpatent documents No. 1 and 2) is “positive correlation”.

Take Tocopherol: the “transition of the tocopherol level in parotid saliva” value in data set [3] is “increased by ingestion and decreased by discontinuation of ingestion”. Besides, the “peak in chromatogram of parotid saliva A (supplement-ingesting volunteer) compared with B (non-ingesting volunteer)” value in data set [4] is on record as “higher peak”.

As for `CC(C)=CCC/C(C)=C/C=C/C(C)=C/C=C/C(C)=C/C=C/C=C(C)/C=C/C=C(C)/C=C/C=C(\C)CCC=C(C)C` [lycopene], the “transition of the level in parotid saliva” value in data set [1] was “obviously increased in the two volunteers who ingested the supplement compared with one volunteer without ingestion, and decreased by discontinuation of ingestion”.
